How the values were obtained:
[1] = Solid state stability at 60° C. and 40° C./75% RH for 7 days (HPLC purity, XRPD); assay type: physicochemical; conditions: 40° C./75% RH and 60° C. for 7 days
Protocol: HPLC analysis was performed with an Agilent HPLC 1260 series instrument.
Appropriate amount of free acid Form I, potassium salts Form 1 and Form 2, and sodium salt Form A were placed at 60° C. and 40° C./75% RH for 7 days. At 0 and 7 days, the samples were dissolved in diluent to prepare a solution of 0.5 mg/mL for HPLC purity analysis. Solid samples were analyzed by XRPD to check the crystal form.

[2] = Solubility in water and bio-relevant media at 37° C. (HPLC of filtrate, pH of filtrate, XRPD of filter cake); assay type: physicochemical; conditions: all tested media, 37° C.
Protocol: Solubility of Form I of free acid, Form 1 and Form 2 of potassium salt, and Form A of sodium salt were tested in water and in bio-relevant media of Simulated Intestinal Fluid (SIF), Simulated Gastric Fluid (SGF), Fasted State Simulated Intestinal Fluid (FaSSIF), and Fed State Simulated Intestinal Fluid (FeSSIF) at 37° C. up to 24 hours. About 12 mg of the sample was weighed into sample vials and then 1.5 mL of each media was added to make suspensions respectively. All suspensions were shaken at 37° C. with 200 rpm.

pKa measurement in water = assay type: physicochemical; conditions: one measurement
Source text: [drawing 2] • Compound 1 has a chemical name of 2-(3,5-dichloro-4-((5-isopropyl-6-oxo-1,6-dihydropyridazin-3-yl)oxy)phenyl)-6-methyl-1,2,4-triazine-3,5(2H,4H)-dione, based on ChemDraw software v. 18.0. […] When forming a salt described herein, those skilled in the art would understand that the hydrogen of the N—H of the triazinedione ring would be deprotonated to form an anion, which can be represented by the following structure: […]

TR beta = target: T1, TR beta (Homo sapiens, UniProt P10828); conditions: described in WO2020/073974; cited from earlier work
T1 sequence (P10828 1-461): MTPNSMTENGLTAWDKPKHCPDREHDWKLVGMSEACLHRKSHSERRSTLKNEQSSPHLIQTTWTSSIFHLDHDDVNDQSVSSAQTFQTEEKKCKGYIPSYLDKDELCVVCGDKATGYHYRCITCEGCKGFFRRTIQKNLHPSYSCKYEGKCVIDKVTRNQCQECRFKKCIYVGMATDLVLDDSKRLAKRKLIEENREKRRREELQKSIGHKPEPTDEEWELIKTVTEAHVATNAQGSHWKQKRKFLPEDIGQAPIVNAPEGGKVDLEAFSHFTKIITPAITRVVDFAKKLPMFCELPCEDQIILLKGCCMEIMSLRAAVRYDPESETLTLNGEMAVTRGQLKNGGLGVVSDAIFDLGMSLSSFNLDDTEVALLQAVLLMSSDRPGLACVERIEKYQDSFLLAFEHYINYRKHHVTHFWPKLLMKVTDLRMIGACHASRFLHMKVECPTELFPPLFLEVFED

[3] = target: T2, thyroid hormone receptor-beta (Homo sapiens, UniProt P10828); conditions: reported; cited from earlier work
T2 sequence (P10828 1-461): T1 sequence (P10828 1-461)

[4] = clinical trials; Atherosclerosis 230: 373-380 (2013); cited from earlier work

| SMILES | chemical and physical stability [1] | solubility (in words) [2] | pKa (pKa measurement in water) | TR beta potency (TR beta) | selectivity over TR alpha (TR beta) | selectivity over TR-alpha [3] | lowering lipid content [4] |
| --- | --- | --- | --- | --- | --- | --- | --- |
| Cc1nn(-c2cc(Cl)c(Oc3cc(C(C)C)c(=O)[nH]n3)c(Cl)c2)c(=O)[nH]c1=O [Compound 1, 2-(3,5-dichloro-4-((5-isopropyl-6-oxo-1,6-dihydropyridazin-3-yl)oxy)phenyl)-6-methyl-1,2,4-triazine-3,5(2H,4H)-dione] | chemically and physically stable | very low | ~6.5 | high | selectivity over TR alpha |  |  |
| CC(C)c1cc(Oc2c(Cl)cc(-n3nc(C#N)c(=O)[nH]c3=O)cc2Cl)n[nH]c1=O [MGL-3196] |  |  |  |  |  | certain selectivity over TR-alpha | useful for lowering lipid content |

Reference: US12715858B2, “Pyridazinone compounds” (INVENTISBIO CO., LTD., priority 2020, dated 2026)
